SMILES strings stand for the structures. Like-named read-outs stand apart in the source and are kept apart here. Numbered stars: 1 amine (or outer) side, 2 acyl side, 3 side chain; on linkers, the order of the positions; unused ones are H or OH. Bridge positions count the residues as written; N and C are the ends. Square brackets hold non-standard residues; d marks the D form. Side chains are listed from the residue outwards. Peptide text beside a SMILES is read from it. * marks the point of attachment. TtdsdLys(DOTA)NH2 = NC(=O)[C@@H](CCCCNC(=O)CN1CCN(CC(=O)O)CCN(CC(=O)O)CCN(CC(=O)O)CC1)NC(=O)CCC(=O)NCCCOCCOCCOCCCN*; X2 = O=C(O)CN1CCN(CC(=O)O)CCN([C@H](CCC(=O)*)C(=O)O)CCN(CC(=O)O)CC1; DOTA = O=C(O)CN1CCN(CC(=O)O)CCN(CC(=O)*)CCN(CC(=O)O)CC1; Phe(3-Cl) = N[C@@H](Cc1cccc(Cl)c1)C(=O)O; Phe(4-Cl) = N[C@@H](Cc1ccc(Cl)cc1)C(=O)O; Ethylenediamine = C(CN[*:2])N[*:1]; NMeT = CN[C@H](C(=O)O)[C@@H](C)O; X1 = O=C(CC1CCN([*:1])CC1)[*:2]; Cit = NC(=O)NCCC[C@H](N)C(=O)O; Tle = CC(C)(C)[C@H](N)C(=O)O; 4Amb = NCc1ccc(C(=O)O)cc1; AEEA = NCCOCCOCC(=O)O; Aib = CC(C)(N)C(=O)O; CO = O=C([*:1])[*:2]; NHBu = CCCCN*

One series deals with PC3-PIP tumor model. Also noted: species or system mice. The conditions noted are these: mouse, in vivo. From the text: Radioactively labeled compounds can be detected by imaging methods such as SPECT and PET. Furthermore, the data acquired by such techniques can be confirmed by direct measurement of radioactivity contained in the individual organs prepared from an animal injected with a radioactively labeled compound of the disclosure. Thus, the biodistribution (the measurement of radioactivity in individual organs) of a radioactively labeled compound can be determined and analyzed. […] All animal experiments were conducted in compliance with the German animal protection laws. Male swiss or NMRI nude mice (6-8 weeks old, Janvier Labs, France) were inoculated with 5×10^6 PC3-PIP cells in the right shoulder. For selected compounds an additional model was used, here male NMRI nude mice (6-8 weeks old, Janvier Labs, France) were inoculated with 5×10^6 or/1×10^7 C4-2 cells in the right shoulder. When tumors reached an appropriate size, the mice received ˜30 MBq ^111In-labeled compounds of the disclosure (diluted to 100 μL with PBS) administered intravenously via the tail vein. Images were obtained on a NanoSPECT/computed tomography system (Mediso Medical Imaging Systems, Budapest, Hungary) using exemplarily the following acquisition and reconstruction parameters (Table 10). [table] Imaging data were saved as DICOM files and analysed using VivoQuant™ software (Invicro, Boston, USA). In brief, regions of interest (ROIs) were drawn based on computed tomography images for the relevant organs and tissue regions such as heart (estimate of blood pool, bps), kidney, and tumor. The resulting numeric data expressed as a percentage of injected dose per gram of tissue (% ID/g) are presented in FIGS. 3(a)-3(ii) for the PC3-PIP model and FIGS. 4(a)-4(r) for the C4-2 model. Bars show mean % ID/g values of two to three animals per time point. Error bars indicate the value range (minimum and maximum values).

Series [1] has as its target T1, PSMA-expressing C4-2 cells (Homo sapiens, UniProt Q04609).
T1 construct: PSMA-expressing C4-2 cells (ATCC, Cat. No. CRL-3314) were cultured in RPMI-1640; host or cells: C4-2 cells
The experiment in a line: FACS binding assay (competition with 50 nM PSM-0183). The conditions noted are these: read-out: pIC50 [C4-2] CAT (converted). Put shortly:
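Competition format: fluorescent tracer PSM-0183 (50 nM) displaced from PSMA on C4-2 cells by a test compound titration over 1 h at 4 °C. Bound tracer was quantified as flow-cytometric AF488 median fluorescence after washing. Four-parameter logistic fits of MFI data gave IC50 and pIC50.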

The target in series [2] is T2, Fc-fusion protein of human PSMA (hPSMA-Fc) (Homo sapiens, UniProt Q04609).
T2 construct: purchased Acro Biosystems PSA-H5264
T2 sequence (Q04609 44-750 limits assumed): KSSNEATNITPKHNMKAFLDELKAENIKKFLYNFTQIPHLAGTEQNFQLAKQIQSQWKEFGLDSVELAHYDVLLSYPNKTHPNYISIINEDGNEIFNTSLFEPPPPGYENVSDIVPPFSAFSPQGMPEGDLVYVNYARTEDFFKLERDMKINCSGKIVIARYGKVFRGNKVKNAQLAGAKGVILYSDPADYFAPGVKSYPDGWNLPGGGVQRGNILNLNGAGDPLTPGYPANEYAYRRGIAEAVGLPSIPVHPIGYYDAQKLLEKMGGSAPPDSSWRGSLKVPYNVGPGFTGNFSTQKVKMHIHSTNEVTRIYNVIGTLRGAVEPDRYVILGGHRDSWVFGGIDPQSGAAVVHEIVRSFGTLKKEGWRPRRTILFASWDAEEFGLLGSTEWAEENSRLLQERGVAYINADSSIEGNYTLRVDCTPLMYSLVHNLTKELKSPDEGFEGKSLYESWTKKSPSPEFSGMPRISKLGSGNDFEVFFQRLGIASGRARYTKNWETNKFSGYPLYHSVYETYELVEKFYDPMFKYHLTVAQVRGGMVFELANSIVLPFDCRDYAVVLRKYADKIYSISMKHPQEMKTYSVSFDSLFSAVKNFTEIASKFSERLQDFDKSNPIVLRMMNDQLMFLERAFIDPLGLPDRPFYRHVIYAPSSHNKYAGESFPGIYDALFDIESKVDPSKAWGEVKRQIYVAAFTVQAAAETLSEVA
As to the kind of experiment: Surface plasmon resonance assay (Biacore T200, single cycle kinetic). Type of series: binding. The conditions noted are these: hPSMA-Fc, 25° C., read-out: pKD CAT (converted). The method in brief: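 KD, expressed as pKD, came from 1:1 Langmuir fits of reference- and buffer-blank-subtracted SPR data. The runs were single-cycle kinetics at 25° C in HBST/0.1% DMSO over human PSMA-Fc, captured to ~1000 RU on a peptide-coated CM5 surface and regenerated with 10 mM glycine pH 1.5.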

Where [3] appears, read: FACS binding, PSMA-expressing C4-2 cells, pIC50 category.
Setting [4] is: pIC50 category of FACS binding, C4-2 cells.
The mark [5] stands for this setting: pKD category for PSMA SPR activity assay.

T1 sequence (Q04609 whole entry): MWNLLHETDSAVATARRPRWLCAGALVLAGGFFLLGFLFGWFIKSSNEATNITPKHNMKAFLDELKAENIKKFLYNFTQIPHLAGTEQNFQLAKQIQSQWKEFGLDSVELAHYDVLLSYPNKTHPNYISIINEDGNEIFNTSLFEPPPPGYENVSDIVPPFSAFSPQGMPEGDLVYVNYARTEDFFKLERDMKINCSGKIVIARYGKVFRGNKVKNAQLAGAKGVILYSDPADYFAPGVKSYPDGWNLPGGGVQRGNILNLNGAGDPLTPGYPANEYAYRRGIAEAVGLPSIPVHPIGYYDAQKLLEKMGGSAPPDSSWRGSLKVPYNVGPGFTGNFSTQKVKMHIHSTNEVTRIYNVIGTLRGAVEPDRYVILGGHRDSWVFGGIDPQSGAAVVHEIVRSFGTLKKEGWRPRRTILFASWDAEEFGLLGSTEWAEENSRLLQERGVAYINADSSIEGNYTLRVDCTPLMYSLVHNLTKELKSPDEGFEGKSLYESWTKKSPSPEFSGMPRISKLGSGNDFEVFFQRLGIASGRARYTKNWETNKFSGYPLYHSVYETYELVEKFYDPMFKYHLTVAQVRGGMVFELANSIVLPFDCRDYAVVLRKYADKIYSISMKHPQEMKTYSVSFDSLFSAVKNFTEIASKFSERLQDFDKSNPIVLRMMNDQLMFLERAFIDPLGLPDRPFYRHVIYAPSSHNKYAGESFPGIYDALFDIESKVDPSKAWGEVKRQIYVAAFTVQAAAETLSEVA

With `C[C@@H](O)[C@H](NC(=O)[C@@H](NC(=O)[C@@H]1CSSC[C@H](NC(=O)[C@H](Cc2ccc(Cl)cc2)NC(=O)C(C)(C)NC(=O)c2ccc(CNC(=O)CN3CCN(CC(=O)O)CCN(CC(=O)O)CCN(CC(=O)O)CC3)cc2)C(=O)N[C@@H](CCCCN)C(=O)N[C@@H](CCCNC(=N)N)C(=O)NC(C)(C)C(=O)N[C@@H](CC(N)=O)C(=O)N1)C(C)(C)C)C(N)=O` [PSM-0283, DOTA-Pamb-Aib-Pcf-[Cys-Lys-Arg-Aib-Asn-Cys]-Tle-Thr-NH2] ({DOTA-4Amb}-[Aib][Phe(4-Cl)]CKR[Aib]NC[Tle]T-NH2; disulfide 3-8), in the series with PC3-PIP tumor model, the “AUC ratio [T/K]” value is listed as 1.6 and the “Tumor AUC” value turned out to be 200 % ID/g*h. Besides, the IC50 in series [1] (setting [3]) is less than 200 nM. In series [2] (PSMA SPR assay, pKD category), the Kd was less than 12.6 nM.
The like results for `CC(=O)N[C@H](C(=O)NC(C)(C)C(=O)N[C@@H](Cc1ccccc1)C(=O)N[C@H]1CSSC[C@@H](C(=O)N[C@H](C(=O)N[C@H](C(=O)NCCCOCCOCCOCCCNC(=O)CCC(=O)N[C@H](CCCCNC(=O)CN2CCN(CC(=O)O)CCN(CC(=O)O)CCN(CC(=O)O)CC2)C(N)=O)[C@@H](C)O)C(C)(C)C)NC(=O)[C@H](CC(N)=O)NC(=O)C(C)(C)NC(=O)[C@H](CCCNC(=N)N)NC(=O)[C@H](CCCCN)NC1=O)[C@@H](C)O` [PSM-0285, Ac-Thr-Aib-Phe-[Cys-Lys-Arg-Aib-Asn-Cys]-Tle-Thr-Ttds-lys(DOTA)-NH2] (Ac-T[Aib]FCKR[Aib]NC[Tle]T-{TtdsdLys(DOTA)NH2}; disulfide 4-9) were, in that order, 0.91, 210 % ID/g*h, less than 200 nM and less than 12.6 nM.
The like results for `CC(=O)N[C@H](C(=O)NC(C)(C)C(=O)N[C@@H](Cc1cccc(Cl)c1)C(=O)N[C@H]1CSSC[C@@H](C(=O)N[C@H](C(=O)N[C@H](C(N)=O)[C@@H](C)O)C(C)(C)C)NC(=O)[C@H](CC(N)=O)NC(=O)[C@H](CCCCNC(=O)COCCOCCNC(=O)CC[C@H](C(=O)O)N2CCN(CC(=O)O)CCN(CC(=O)O)CCN(CC(=O)O)CC2)NC(=O)[C@H](CCCNC(=N)N)NC(=O)[C@H](CCCCN)NC1=O)[C@@H](C)O` [PSM-0301, Ac-Thr-Aib-Mcf-[Cys-Lys-Arg-Lys (DOTAGA-020c)-Asn-Cys]-Tle-Thr-NH2] (Ac-T[Aib][Phe(3-Cl)]CKRK([AEEA-X2])NC[Tle]T-NH2; disulfide 4-9) were, in that order, 0.45, 83 % ID/g*h, less than 200 nM and less than 12.6 nM.
The like results for `CC(=O)N[C@H](C(=O)NC(C)(C)C(=O)N[C@@H](Cc1ccccc1)C(=O)N[C@H]1CSSC[C@@H](C(=O)N[C@H](C(=O)N[C@H](C(=O)N2CCC(CC(=O)N[C@H](CCCCNC(=O)CC[C@H](C(=O)O)N3CCN(CC(=O)O)CCN(CC(=O)O)CCN(CC(=O)O)CC3)C(N)=O)CC2)[C@@H](C)O)C(C)(C)C)NC(=O)[C@H](CC(N)=O)NC(=O)C(C)(C)NC(=O)[C@H](CCCNC(=N)N)NC(=O)[C@H](CCCCN)NC1=O)[C@@H](C)O` [PSM-0339, Ac-Thr-Aib-Phe-[Cys-Lys-Arg-Aib-Asn-Cys]-Tle-Thr-Cmp-lys (DOTAGA)-NH2] (Ac-T[Aib]FCKR[Aib]NC[Tle]T[X1][dK](X2)-NH2; disulfide 4-9) were, in that order, 1.2, 160 % ID/g*h, less than 200 nM and less than 12.6 nM.
Regarding `C[C@@H](O)[C@H](NC(=O)CC1CCN(C(=O)CN2CCN(CC(=O)O)CCN(CC(=O)O)CCN(CC(=O)O)CC2)CC1)C(=O)NC(C)(C)C(=O)N[C@@H](Cc1ccccc1)C(=O)N[C@H]1CSSC[C@@H](C(=O)N[C@H](C(N)=O)C(C)(C)C)NC(=O)[C@H](CC(N)=O)NC(=O)C(C)(C)NC(=O)[C@H](CCCNC(=N)N)NC(=O)[C@H](CCCCN)NC1=O` [PSM-0361, DOTA-Cmp-Thr-Aib-Phe-[Cys-Lys-Arg-Aib-Asn-Cys]-Tle-NH2] ({DOTA}-[X1]T[Aib]FCKR[Aib]NC[Tle]-NH2; disulfide 5-10), in the series on PC3-PIP tumor model, the “AUC ratio [T/K]” value worked out at 0.85 and the “Tumor AUC” value is 110 % ID/g*h. In series [1] (setting [3]), the IC50 was less than 200 nM. Besides, the Kd in series [2] (PSMA SPR assay, pKD category) was less than 12.6 nM.
Turning to `C[C@@H](O)[C@H](NC(=O)[C@@H](NC(=O)[C@@H]1CSSC[C@H](NC(=O)[C@H](Cc2ccc(Cl)cc2)NC(=O)C(C)(C)NC(=O)[C@@H](NC(=O)CC2CCN(C(=O)CN3CCN(CC(=O)O)CCN(CC(=O)O)CCN(CC(=O)O)CC3)CC2)[C@@H](C)O)C(=O)N[C@@H](CCCCN)C(=O)N[C@@H](CCCNC(N)=O)C(=O)NC(C)(C)C(=O)N[C@@H](CC(N)=O)C(=O)N1)C(C)(C)C)C(N)=O` [PSM-0365, DOTA-Cmp-Thr-Aib-Pcf-[Cys-Lys-Cit-Aib-Asn-Cys]-Tle-Thr-NH2] ({DOTA}-[X1]T[Aib][Phe(4-Cl)]CK[Cit][Aib]NC[Tle]T-NH2; disulfide 5-10), in the series with PC3-PIP tumor model, the “AUC ratio [T/K]” value stood at 1.6 and the “Tumor AUC” value is recorded as 140 % ID/g*h. For the same compound, in series [1] (setting [4]), the IC50 is less than 200 nM. In addition, in series [2] (setting [5]), the Kd is less than 12.6 nM.
The like results for `CCCCNC(=O)N[C@H](C(=O)NC(C)(C)C(=O)N[C@@H](Cc1ccc(Cl)cc1)C(=O)N[C@H]1CSSC[C@@H](C(=O)N[C@H](C(=O)N[C@H](C(=O)N2CCC(CC(=O)N[C@H](CCCCNC(=O)CN3CCN(CC(=O)O)CCN(CC(=O)O)CCN(CC(=O)O)CC3)C(N)=O)CC2)[C@@H](C)O)C(C)(C)C)NC(=O)[C@H](CC(N)=O)NC(=O)C(C)(C)NC(=O)[C@H](CCCNC(=N)N)NC(=O)[C@H](CCCCN)NC1=O)[C@@H](C)O` [PSM-0371, nBuCAyl-Thr-Aib-Pcf-[Cys-Lys-Arg-Aib-Asn-Cys]-Tle-Thr-Cmp-lys(DOTA)-NH2] ({NHBu-CO}-T[Aib][Phe(4-Cl)]CKR[Aib]NC[Tle]T[X1][dK](DOTA)-NH2; disulfide 4-9) were, in that order, 0.62, 120 % ID/g*h, less than 200 nM and less than 12.6 nM.
The like results for `CC(C)[C@H](NC(=O)[C@@H]1CSSC[C@H](NC(=O)[C@H](Cc2ccc(Cl)cc2)NC(=O)C(C)(C)NC(=O)[C@@H](NC(=O)CC2CCN(C(=O)CN3CCN(CC(=O)O)CCN(CC(=O)O)CCN(CC(=O)O)CC3)CC2)[C@@H](C)O)C(=O)N[C@@H](CCCCN)C(=O)N[C@@H](CCCNC(=N)N)C(=O)NC(C)(C)C(=O)N[C@@H](CC(N)=O)C(=O)N1)C(=O)N(C)[C@H](C(N)=O)[C@@H](C)O` [PSM-0377, DOTA-Cmp-Thr-Aib-Pcf-[Cys-Lys-Arg-Aib-Asn-Cys]-Val-Nmt-NH2] ({DOTA}-[X1]T[Aib][Phe(4-Cl)]CKR[Aib]NCV[NMeT]-NH2; disulfide 5-10) were, in that order, 1.1, 160 % ID/g*h, less than 200 nM and less than 12.6 nM.
The like results for `C[C@@H](O)[C@H](NC(=O)CC1CCN(C(=O)CN2CCN(CC(=O)O)CCN(CC(=O)O)CCN(CC(=O)O)CC2)CC1)C(=O)NC(C)(C)C(=O)N[C@@H](Cc1ccc(Cl)cc1)C(=O)N[C@H]1CSSC[C@@H](C(=O)N[C@H](C(=O)NCCN)C(C)(C)C)NC(=O)[C@H](CC(N)=O)NC(=O)C(C)(C)NC(=O)[C@H](CCCNC(=N)N)NC(=O)[C@H](CCCCN)NC1=O` [PSM-0384, DOTA-Cmp-Thr-Aib-Pcf-[Cys-Lys-Arg-Aib-Asn-Cys]-Tle-en] ({DOTA}-[X1]T[Aib][Phe(4-Cl)]CKR[Aib]NC[Tle]-Ethylenediamine; disulfide 5-10) were, in that order, 0.30, 220 % ID/g*h, less than 200 nM and less than 12.6 nM.

These data come from patent publication US20260083865A1, “PROSTATE SPECIFIC MEMBRANE ANTIGEN (PSMA) LIGANDS AND USE THEREOF” (priority 2022, published 2026).
